# Data: patent EP4431090A1, “SOLFONAMIDES ACTING AS MITOCHONDRIAL COMPLEX I MODULATOR COMPOUNDS” (Istesso 1 Limited, priority 2023, dated 2024)
# Values joined by “and” are separate entries in the source; they are usually repeats but may differ in a detail not shown here. Equal entries are not always repeated. Marks after values point to notes of the source that are not given here.
# What was measured:
# [1] = system: bleomycin-induced lung fibrosis; assay: Mouse bleomycin-induced lung fibrosis; format: in vivo, C57BI/6 mice; details: scale 0-5, Dose (mg/kg/day): Nintedanib 30 b.d., HMC-C-01-A 10 q.d., mean ± s.e.m.
# Experimental: Eight- to ten-week-old female C57BI/6 mice were used for all procedures. Animals were housed in groups of 4 and were maintained at 22°C ± 3°C on a 12-hour light/dark cycle with food and water ad libitum. Bleomycin was prepared by dissolving in saline at 1.5 mg/mL. All mice were administered intranasally with 3 mg/kg bleomycin. Seven days after bleomycin administration, vehicle control, nintedanib or MCIM compound administration was initiated. Nintedanib was administered twice daily (b.d.) by oral gavage at a total daily dose of 30 mg/kg/day for 14 days. MCIM compounds were administered once daily (q.d.) by oral gavage at a total daily dose of either 10 or 20 mg/kg/day for 14 days.
# On the 14th day, lungs were collected after perfusion. The left lung lobe was assessed for fibrosis by measuring total lung hydroxyproline levels. The right lung lobes were fixed and sectioned for histopathology. […]
# The data were analysed by generating an average histopathology score across each treatment group. […]
# [2] = system: collagen-induced arthritis; assay: Mouse collagen-induced arthritis; format: in vivo, DBA/1j mice
# [3] = system: human primary lung fibroblasts; assay: Cell proliferation (BrdU incorporation, nucleus counts) with compound washout; format: cell-based; details: for cell proliferation (BRdU incorporation and nucleus counts): pyruvate-restricted conditions, 24-hours compound treatment; for recovery of cell proliferation after compound washout (BrdU incorporation and nucleus counts): 24-hours incubation in pyruvate-free media, highest tested concentration
# Experimental: Human primary lung fibroblasts were plated at a concentration of 5 × 10^3 cells/well in 96well plates in 100 µL DMEM complete media (5.5 mM glucose, 2 mM L-glutamine, and 1 mM pyruvate) containing 1% penicillin-streptomycin and 10% heat-inactivated foetal bovine serum. Cells were incubated overnight at 37°C / 5% CO2 to allow cell attachment. On the day of the treatment, cell culture medium was removed, and the cells were washed three times with Gibco™ DMEM, no glucose, no L-glutamine, no pyruvate, no phenol red + 1% penicillin-streptomycin and 10% heat inactivated foetal bovine serum (termed `basal' culture medium). Fresh cell culture media (without pyruvate) was added to the wells. Test compounds were prepared as 10x final concentration solutions in pyruvate-free medium. Following 24-hours compound treatment (in 5% CO2,37°C cell incubator), spent medium was removed from all wells and were thoroughly washed thrice with basal cell culture medium. For washout assay condition, 100 µL of pyruvate-free media was added per well. For No Washout, 90 µL of pyruvate-free media and 10 µL of 10x final assay concentration prepared test agents (or assay media) were added per well. Recovery of cell proliferation was measured after 24-hours incubation at 37°C / 5% CO2 with either pyruvate-free media (without re-addition of the compound) or re-addition of compounds in pyruvate-free media.
# To assess nucleus counts, formaldehyde was added to a final concentration of 4%. Following a further 20-minute incubation at room temperature, the medium was aspirated, the cells were washed twice with 200 µL TBS-T (1x TBS + 0.1% Tween 20) and the nuclei were stained with 50 µL of PBS containing 10% heat inactivated foetal bovine serum, 0.1% Triton-X-100 and 2 µM Hoechst dye. Following a 30-minute incubation at room temperature, protected from light, the cells were washed twice with TBS-T, and cells were counted in 100 µL PBS solution using an ImageXpress Pico system with stitched plate acquisition (4x magnification), DAPI channel (50 ms exposure, -3 digital confocal setting).
# When cells grow and divide (termed proliferation), cells progress through the cell cycle, a tightly regulated process that consists of two main activities: DNA replication and mitosis/cell division. As a method of accurately quantifying cellular proliferation rate, the pyrimidine analogue, BrdU can be utilised to measure DNA replication. BrdU can be incorporated into the newly synthesized DNA in place of thymidine. Following incubation of proliferating cells with BrdU for 20 hours, labelling solution was removed thoroughly, and cells were fixed with 70 µL of fix solution for 30 min at room temperature. […] Eu-fluorescence was measured in a time-resolved manner using the PHERAstar FSX (Ex337/ Em620 nm). […]
# [4] = system: human primary myeloid cells (osteoclasts); assay: Mitochondrial phenotype assessment in osteoclasts (electron microscopy); format: cell-based; details: rotenone 100 nM; Figure 3B
# Experimental: Peripheral blood mononuclear cells were isolated from human whole blood by differential centrifugation over Ficoll-Paque PLUS (GE Healthcare Biosciences). CD14+ monocytes were purified from the freshly isolated PBMCs using the CD14+ selection kit (StemCells. UK) by positive magnetic selection according to manufacturer's instructions . Cells were differentiated to osteoclasts by adding 1×10^6 ml-1 cells in complete minimum essential medium-alpha supplemented with 10% heat inactivated fetal bovine serum (FBS, Invitrogen,UK),2mM glutamine (Invitrogen,UK) 20U ml-1 penicillin, 100ug/ml streptomycin (Sigma ALdrich, UK) along with 25ng ml-1 recombinant human M-CSF (Peprotech, UK) and 25 ng ml-1 RANKL for 6 days. On th^e 6th day, the cells were treated with test compound (final concentration 0.03-1 uM, 0,05 % DMSO) or a control, rotenone (100 nM).
# Adherent cells were fixed in 2.5% glutaraldehyde in 0.1 M cacodylate buffer, pH 7.4, for 1 h, post fixed with 1% osmium tetroxide (Electron Microscopy Science), dehydrated in a graded series of ethanol, and embedded in Epon (Electron Microscopy Science). The embedded samples were sectioned by an ultramicrotome (Ultracut E, Richert-Jung, Leica Microsystem). Thin sections (90 nm thick) were collected on 300 mesh nickel grids and stained with uranyl acetate (Electron Microscopy Science) and lead citrate. […]
smiles,measurement,setting,value
COC(=O)c1ccc2c(c1)NC(=O)/C2=C(\Nc1ccc(N(C)C(=O)CN2CCN(C)CC2)cc1)c1ccccc1 [Nintedanib],AT2 cell number Treatment value,"[1]; hyperplasia score, ABD900 20 q.d., two studies",1.6 ± 0.2 and 1.1 ± 0.1
same,AT2 cell size Treatment value,[1]; hypertrophy score,1.6 ± 0.2
C[C@@H]1CCN(C(=O)CC#N)C[C@@H]1N(C)c1ncnc2[nH]ccc12 [Tofacitinib],appearance of the osteoid/new bone formed,"[2]; 10 mg/kg/day MCIM compound, 3 mg/kg/day etanercept, Figure 23, tofacitinib data not shown",reactive and sporadic deposits
same,Bone resorption (sum) Treatment value,"[2]; once daily for 14 days, Dose (mg/kg/day) as printed: Etanercept 3, HMC-C-01-A 3, all others 10, sum from all limbs per animal per group",48**
same,Bone formation (sum) Treatment value,"[2]; osteoid zones, once daily for 14 days, Dose (mg/kg/day) as printed: Etanercept 3, HMC-C-01-A 3, all others 10, sum from all limbs per animal per group",0
C=C(C)[C@H]1Cc2c(ccc3c2O[C@@H]2COc4cc(OC)c(OC)cc4[C@@H]2C3=O)O1 [rotenone],cell proliferation (BRdU incorporation and nucleus counts),[3],reduce cell proliferation
same,recovery of cell proliferation after compound washout (BrdU incorporation and nucleus counts),[3],no recovery
same,mitochondrial morphology,[4],increased numbers of abnormal mitochondria which were more rounded and had condensed cristae with evidence of fragmentation
Cc1nc(-c2nc(-c3ccc(OC(F)(F)F)cc3)no2)nn1Cc1cccc(N2CCC(S(C)(=O)=O)CC2)c1 [IACS-010759],cell proliferation (BRdU incorporation and nucleus counts),[3],reduce cell proliferation
same,recovery of cell proliferation after compound washout (BrdU incorporation and nucleus counts),[3],no recovery
